Measurements published in patent publication US8454977B2, “Non-toxic biofilm inhibitor” (priority 2005, dated 2013).
Entries after “also recorded” stand apart in the source; their conditions may differ.

Key:
[1] = test system: biotinylated purified PAK pili
[2] = test system: biotinylated viable PAKwt cells; format: cell-based, Pseudomonas aeruginosa
P. aeruginosa strain PAK = assay: Epifluorescence microscopy of cells bound to stainless steel, strain PAK; format: cell-based, Pseudomonas aeruginosa; details: PAK(128-144)ox 51 nM; PAK(134-140) 100 μg/ml; 60 min 37° C.
Procedure: (§1) FIG. 2. Epifluorescence microscopy of stainless steel after binding of P. aeruginosa strains PAK (panels a, b, and c), PAO (panels d, e, and f), K122-4 (panels g, h, and i), KB7 (panels j, k, and l), PAKNP (panels m, n, and o) and PAKMS591 (panels p, q, and r). Viable cells were allowed to incubate directly (panels a, d, g, j, m, and p) with a stainless steel grade 304 surface for 60 min at 37° C. and washed 5 times with 10 mM PBS pH 7.4 containing 0.05% BSA. The cells were then stained using acrydine orange and a 40× objective field was photographed with a Leitz Laborlux microscope equipped with epifluorescent illumination and a Wild automatic exposure 35 mm camera system. Note that bound Pseudomonas cells are stained orange while green fluorescence indicates non-specific interaction of the fluorochrome with the surface. P. aeruginosa strains PAK, PAO, K122-4, KB7, PAKNP, and PAKMS591 were incubated with the synthetic peptide PAK(128-144d)ox (panels b, e, h, k, n, and q respectively) or with synthetic peptide PAK(134-140) (panels c, f, i, l, o, and r respectively).
(§2) Stainless steel plates, prepared and utilized in bacterial binding studies as described above, were incubated in 1 mM Acridine Orange stain for one minute, and thoroughly rinsed with distilled water. […] Micrographs were recorded with Kodak Colormax 35 mm film, processed and digitally scanned immediately after film processing.

P. aeruginosa strain PAO = assay: Epifluorescence microscopy of cells bound to stainless steel, strain PAO; format: cell-based, Pseudomonas aeruginosa; details: PAK(128-144)ox 51 nM; PAK(134-140) 100 μg/ml; 60 min 37° C.
Procedure: as §1, §2

[3] = test system: respiratory epithelial cells; details: Yu et al., 1996; cited from earlier work
[4] = test system: P. aeruginosa strain PAKMS591; assay: Epifluorescence microscopy of cells bound to stainless steel, strain PAKMS591; format: cell-based, Pseudomonas aeruginosa; details: 60 min 37° C.
Procedure: as §1, §2

[5] = test system: P. aeruginosa strain PAKNP; assay: Epifluorescence microscopy of cells bound to stainless steel, strain PAKNP; format: cell-based, Pseudomonas aeruginosa; details: 60 min 37° C.
Procedure: as §1, §2

[6] = test system: P. aeruginosa strain K122-4; assay: Epifluorescence microscopy of cells bound to stainless steel, strain K122-4; format: cell-based, Pseudomonas aeruginosa; details: PAK(128-144)ox 51 nM; PAK(134-140) 100 μg/ml; 60 min 37° C.
Procedure: as §1, §2

P. aeruginosa strain KB7 = assay: Epifluorescence microscopy of cells bound to stainless steel, strain KB7; format: cell-based, Pseudomonas aeruginosa; details: PAK(128-144)ox 51 nM; PAK(134-140) 100 μg/ml; 60 min 37° C.
Procedure: as §1, §2

Sequence of biotinylated purified PAK pili (P02973 7-150): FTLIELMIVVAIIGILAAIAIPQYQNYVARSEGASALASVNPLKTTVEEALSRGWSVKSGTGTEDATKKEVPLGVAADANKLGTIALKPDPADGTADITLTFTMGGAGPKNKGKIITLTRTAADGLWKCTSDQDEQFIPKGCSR

Substance	effect of peptide on binding of biotinylated PAK pili to stainless steel [1]	effect of peptide on binding of biotinylated PAKwt cells to stainless steel [2]	effect on binding of strain PAK to stainless steel (microscopy) (P. aeruginosa strain PAK)	effect on binding of strain PAO to stainless steel (microscopy) (P. aeruginosa strain PAO)	affinity for epithelial cells / mucosal cell surface receptors [3]	effect on binding of strain PAKMS591 (fliC-) to stainless steel (microscopy) [4]	effect on binding of strain PAKNP (pilA-) to stainless steel (microscopy) [5]	effect on binding of strain K122-4 to stainless steel (microscopy) [6]	effect on binding of strain KB7 to stainless steel (microscopy) (P. aeruginosa strain KB7)	Ki ([1]; read-out: apparent Ki of the peptide inhibition of PAK pilus binding to steel)	Ki ([2]; read-out: apparent Ki of the peptide inhibition of PAKwt binding to steel)
Ac-T-L-T-R-T-A-A-D-G-OH (Ac-TLTRTAADG-OH) [PAK(117-125)]	appears to enhance the binding of pili to steel rather than inhibiting	appears to enhance cell binding to steel rather than inhibiting	–	–	–	–	–	–	–	–	–
Ac-D-E-Q-F-I-P-K-amide (Ac-DEQFIPK-NH2) [PAK(134-140)]	–	do not inhibit cell binding; also recorded: did not inhibit	did not inhibit the binding; also recorded: minimal effect	did not inhibit the binding; also recorded: minimal effect	low affinity	did not inhibit the binding	did not inhibit the binding	did not inhibit the binding; also recorded: nor did it inhibit the binding; also recorded: minimal effect	did not inhibit the binding; also recorded: nor did it inhibit the binding; also recorded: minimal effect	–	–
Ac-PQYQNYVARSEGASALASVNPLKTTVEEADP-OH [PAK(22-52)]	do not inhibit the binding of pili	do not inhibit cell binding	–	–	–	–	–	–	–	–	–
Ac-KCTSDQDEQFIPKGCSK-OH (cysteine pairing not given here) [PAK(128-144)ox]	–	–	reduced the binding	reduced the binding; also recorded: substantially inhibits; also recorded: effectively inhibits the adherence	–	reduced the binding; also recorded: inhibited the binding	did not reduce the binding; also recorded: had no effect	reduced the binding; also recorded: substantially inhibits; also recorded: effectively inhibits the adherence	reduced the binding; also recorded: substantially inhibits; also recorded: effectively inhibits the adherence	~0.2 nM	~4 nM
